Measured values from patent publication US4248883A, “1-(3-Mercapto-2-methylpropanoyl)prolyl amino acid derivatives and salts thereof, processes for their preparation, and pharmaceutical compositions containing such compounds” (Dainippon Pharmaceutical Co., Ltd., priority 1978, dated 1981).
Like-named read-outs stand apart in the source and are kept apart here.

How the values were obtained:
[1] = tested on: Goldblatt two-kidney renal hypertensive rats; experiment: Test 1: antihypertensive activity, oral, tail-plethysmographic blood pressure in Goldblatt two-kidney renal hypertensive rats; assay type: in vivo, rat (male STD Wistar strain); conditions: for change in vivo at 100 µmol/kg: Rattus norvegicus; for Peak time (time at which the maximum hypotensive effect was observed): renal hypertensive rats; for antihypertensive effect time course relative to compound 1 (SQ-14225), FIGS. 1 and 2: single oral, 0.015 millimole/kg and 0.1 millimole/kg, mean of six animals
From the text: The contralateral kidney and its renal artery were left intact. The animals were maintained on commercial rat chow and tap water ad libitum.
In each Figure, the ordinate represents the changes in blood pressure (mmHg) and the abscissa, the time (hours) elapsed after oral administration.

in vivo = conditions: mouse, in vivo
From the text: (§1) Male STD-ddY strain mice, weighing 21 to 24 grams, were used.

mice = experiment: Test 2: toxicity (acute LD50 in mice); conditions: mice
From the text: as §1

[2] = tested on: angiotensin I-converting enzyme; conditions: Biochemistry, 16, 5484 (1977); cited from earlier work
[3] = tested on: experimental hypertensive animals; conditions: Science 196, 441 (1977); cited from earlier work
[4] = tested on: angiotensin I-converting enzyme; conditions: Science 196, 441 (1977); cited from earlier work
[5] = oral, 0.1 millimole/kg, 7 hours after administration, % of initial blood pressure, read-out: Change in blood pressure, 7 hours after administration (%)
[6] = oral, 0.1 millimole/kg, at peak time, % of initial blood pressure, read-out: Change in blood pressure, peak time (%)
[7] = oral, 0.1 millimole/kg, 7 hours after administration
[8] = oral, 0.1 millimole/kg, at peak time
[9] = oral, 0.1 millimole/kg, positive = decrease

SMILES	change in vivo at 100 µmol/kg [1, 5]	change in vivo at 100 µmol/kg [1, 6]	Change in blood pressure, 7 hours after administration [1, 7]	Change in blood pressure, peak time [1, 8]	Peak time (time at which the maximum hypotensive effect was observed) ([1]; oral, 0.1 millimole/kg)	LD50 (in vivo; iv)	LD50 (in vivo; po)	toxicity (in words) (mice)	antihypertensive effect time course relative to compound 1 (SQ-14225), FIGS. 1 and 2 [1]	inhibition of angiotensin I-converting enzyme in vitro [2]	change in vivo at 100 µmol/kg ([1]; po, 7 h, read-out: Change in blood pressure, 7 hours after administration (%))	change in vivo at 100 µmol/kg ([1]; po, read-out: Change in blood pressure, peak time (%))	decrease in initial blood pressure at 7 hours after medication [1, 9]	maximum hypotensive response (decrease in initial blood pressure) [1, 9]	antihypertensive activity in experimental hypertensive animals [3]	inhibitory activity in vivo on angiotensin I-converting enzyme [4]	reduction of blood pressures (in words) ([1]; oral, 0.1 millimole/kg)
C[C@H](CSC(=O)C(C)(C)C)C(=O)N1CCC[C@H]1C(=O)N[C@@H](Cc1ccccc1)C(=O)O [C, 1-[D-3-(2,2-Dimethylpropanoyl)thio-2-methylpropanoyl]-L-prolyl-L-phenylalanine]	-18%	-20%	-37 mmHg	-41 mmHg	5 h												
C[C@H](CSC(=O)c1ccccc1)C(=O)N1CCC[C@H]1C(=O)N[C@@H](Cc1ccccc1)C(=O)O [F, 1-(D-3-Benzoylthio-2-methylpropanoyl)-L-prolyl-L-phenylalanine]	-15%	-15%	-31 mmHg	-31 mmHg	5 h												
CCC(=O)SC[C@@H](C)C(=O)N1CCC[C@H]1C(=O)N[C@@H](Cc1ccccc1)C(=O)O [B, 1-(D-3-Propanoylthio-2-methylpropanoyl)-L-prolyl-L-phenylalanine]	-17%	-18%	-36 mmHg	-40 mmHg	5 h	> 1000 mg/kg	> 6000 mg/kg	very weak	milder and more prolonged antihypertensive effect								
C[C@H](CS)C(=O)N1CCC[C@H]1C(=O)O [Compound 1, 1-(D-3-Mercapto-2-methylpropanoyl)-L-proline, reference compound]			-15 mmHg	-35 mmHg						particularly good inhibitor of angiotensin I-converting enzyme	-8%	-18%	8%	18%	superior antihypertensive activity	potent inhibitory activity in vivo	
C[C@H](CS)C(=O)N1CCC[C@H]1C(N)=O [Compound 2, 1-(D-3-Mercapto-2-methylpropanoyl)-L-proline amide, reference compound]	-1%	-3%	-1 mmHg	-5 mmHg	2 h												did not reduce blood pressures
CC(=O)SC[C@@H](C)C(=O)N1CCC[C@H]1C(=O)N[C@@H](Cc1ccccc1)C(=O)O [A, 1-(D-3-Acetylthio-2-methylpropanoyl)-L-prolyl-L-phenylalanine]	-16%	-17%	-33 mmHg	-35 mmHg	5 h	> 1000 mg/kg	> 6000 mg/kg	very weak	milder and more prolonged antihypertensive effect								
CCSSC[C@@H](C)C(=O)N1CCC[C@H]1C(=O)N[C@@H](Cc1ccccc1)C(=O)O [E, 1-(D-3-Ethyldithio-2-methylpropanoyl)-L-prolyl-L-phenylalanine]	-19%	-19%	-38 mmHg	-38 mmHg	7 h												
CCOC(=O)[C@H](Cc1c[nH]c2ccccc12)NC(=O)[C@@H]1CCCN1C(=O)[C@H](C)CSC(C)=O [I, 1-(D-3-Acetylthio-2-methylpropanoyl)-L-prolyl-L-tryptophan ethyl ester]	-14%	-16%	-26 mmHg	-30 mmHg	5 h												
CCOC(=O)[C@H](CCSC)NC(=O)[C@@H]1CCCN1C(=O)[C@H](C)CSC(C)=O [J, 1-(D-3-Acetylthio-2-methylpropanoyl)-L-prolyl-L-methionine ethyl ester]	-13%	-15%	-27 mmHg	-30 mmHg	5 h												
COC(=O)[C@H](Cc1ccc(O)cc1)NC(=O)[C@@H]1CCCN1C(=O)[C@H](C)CSC(C)=O [G, 1-(D-3-Acetylthio-2-methylpropanoyl)-L-prolyl-L-tyrosine methyl ester]	-15%	-17%	-29 mmHg	-33 mmHg	5 h												
CC(=O)SC[C@@H](C)C(=O)N1CCC[C@H]1C(N)=O [Compound 3, 1-(D-3-Acetylthio-2-methylpropanoyl)-L-proline amide, reference compound]	-2%	-4%	-4 mmHg	-7 mmHg	2 h												did not reduce blood pressures
CC(C)C(=O)SC[C@@H](C)C(=O)N1CCC[C@H]1C(=O)N[C@@H](Cc1ccccc1)C(=O)O [D, 1-[D-3-(2-Methylpropanoyl)thio-2-methylpropanoyl]-L-prolyl-L-phenylalanine]	-14%	-18%	-29 mmHg	-37 mmHg	5 h												
CCOC(=O)[C@H](Cc1ccc(O)cc1)NC(=O)[C@@H]1CCCN1C(=O)[C@H](C)CSC(C)=O [H, 1-(D-3-Acetylthio-2-methylpropanoyl)-L-prolyl-L-tyrosine ethyl ester]	-14%	-17%	-29 mmHg	-34 mmHg	5 h												
